Square brackets hold non-standard residues; d marks the D form. Peptide text beside a SMILES is read from it. * marks the point of attachment. Bpa = N[C@@H](Cc1ccc(C(=O)c2ccccc2)cc1)C(=O)O; Phe(4-Cl) = N[C@@H](Cc1ccc(Cl)cc1)C(=O)O; hArg = N=C(N)NCCCC[C@H](N)C(=O)O; Nle = CCCC[C@H](N)C(=O)O; Abu = CC[C@H](N)C(=O)O; PhAc = O=C(Cc1ccccc1)*
Test system: hGH-RH(1-29)NH2 induced GH release
Assay: Inhibition of GH release in superfused rat pituitary system
Assay type: cell-based
Procedure: The analogs were tested in vitro in a test described earlier (S. Vigh and A. V Schally, Peptides 5:241-[…], 1984) with modification (Z. Rekasi and A. V. Schally, P.N.A.S. 90:2146-2149, 1993).
Briefly, the cells are preincubated with peptides for 9 minutes (3 mL) at various concentrations. Immediately after the incubation, 1 nM hGH-RH(1-29)NH2 is administered for 3 minutes (1 mL) 10 minute response). To check the duration of the antagonistic effect of the analogue, 1 nM hGH-RH(1-29)NH2 is applied 30, 60, 90, and 120 minutes later for 3 minutes [30, 60, 90, 120 min responses]. Net integral values of the GH responses are evaluated. GH responses are compared to and expressed as percent of the original GH response induced by 1 nM GH-RH(1-29)NH2 The effect of the new antagonists are compared to that of [Ac-Tyr^1, D-Arg^2]hGH-RH(1-29)NH2, the “Standard antagonist”.
Rat GH levels in aliquots of undiluted and diluted superfusion samples were measured by double-antibody radioimmunoassay using materials supplied by the National Hormone and Pituitary Program, Baltimore, Md. The results of RIA were analyzed with a computer program developed in our institute (V. Csernus and A. V. Schally, in Neuroendocrine Research Methods, Harwood Academic (Greenstein, B. D. ed., London, pp. 71-109, 1991), hereby incorporated by reference.

[1] = antagonist 30 nM, 1 nM hGH-RH(1-29)NH2 at 0 min
[2] = antagonist 30 nM, 1 nM hGH-RH(1-29)NH2 at 30 min
[3] = antagonist 30 nM, 1 nM hGH-RH(1-29)NH2 at 60 min
[4] = antagonist 30 nM, 1 nM hGH-RH(1-29)NH2 at 90 min
[5] = antagonist 30 nM, 1 nM hGH-RH(1-29)NH2 at 120 min

Compound | GH response (% of control) 0 min (antagonist 10 nM, 0 min) | GH response (% of control) 30 min (antagonist 10 nM, 30 min) | GH response (% of control) 60 min (antagonist 10 nM, 60 min) | GH response (% of control) 90 min (antagonist 10 nM, 90 min) | GH response (% of control) 120 min (antagonist 10 nM, 120 min) | GH response (% of control) 0 min [1] | GH response (% of control) 30 min [2] | GH response (% of control) 60 min [3] | GH response (% of control) 90 min [4] | GH response (% of control) 120 min [5] | endocrine antagonistic potency: inhibition of the GH release stimulated by hGH-RH(1-29)NH2 (in words) (general statement, in vitro and in vivo)
CCCC[C@H](NC(=O)[C@@H](NC(=O)[C@H](CC(=O)O)NC(=O)[C@H](CCC(N)=O)NC(=O)[C@H](CC(C)C)NC(=O)[C@H](CC(C)C)NC(=O)[C@H](CCCCN)NC(=O)[C@H](CCCNC(=N)N)NC(=O)[C@H](C)NC(=O)[C@H](CO)NC(=O)[C@H](CC(C)C)NC(=O)[C@H](CCC(N)=O)NC(=O)[C@H](CC)NC(=O)[C@H](CC(C)C)NC(=O)[C@@H](NC(=O)[C@H](CCCCN)NC(=O)[C@H](CCCNC(=N)N)NC(=O)[C@H](Cc1ccc(O)cc1)NC(=O)[C@H](CCCNC(=N)N)NC(=O)[C@H](CC(N)=O)NC(=O)[C@@H](NC(=O)[C@H](Cc1ccc(Cl)cc1)NC(=O)[C@@H](NC(=O)[C@H](C)NC(=O)[C@H](CC(=O)O)NC(=O)[C@@H](CCCNC(=N)N)NC(=O)[C@H](Cc1ccc(O)cc1)NC(=O)Cc1ccccc1)[C@@H](C)CC)[C@@H](C)O)C(C)C)[C@@H](C)CC)C(=O)N[C@H](CCCNC(=N)N)C(=O)N[C@@H](CCCCNC(=N)N)C(N)=O [JV-1-36, reference compound] (PhAc-Y[dR]DAI[Phe(4-Cl)]TNRYRKVL[Abu]QLSARKLLQDI[Nle][dR][hArg]-NH2; N-terminus and C-terminus assumed) | 80 % of control | 42 % of control | 60 % of control | 64 % of control | 85 % of control | 36 % of control | 21 % of control | 25 % of control | 29 % of control | 29 % of control | 
CCCC[C@H](NC(=O)[C@@H](NC(=O)[C@H](CC(=O)O)NC(=O)[C@H](CCC(N)=O)NC(=O)[C@H](CC(C)C)NC(=O)[C@H](CC(C)C)NC(=O)[C@H](CCCCN)NC(=O)[C@H](CCCNC(=N)N)NC(=O)[C@H](C)NC(=O)[C@H](CO)NC(=O)[C@H](CC(C)C)NC(=O)[C@H](CCC(N)=O)NC(=O)[C@H](CC)NC(=O)[C@H](CC(C)C)NC(=O)[C@@H](NC(=O)[C@H](CCCCN)NC(=O)[C@H](CCCNC(=N)N)NC(=O)[C@H](Cc1ccc(C(=O)c2ccccc2)cc1)NC(=O)[C@H](CCCCNC(=N)N)NC(=O)[C@H](CC(N)=O)NC(=O)[C@@H](NC(=O)[C@H](Cc1ccc(O)cc1)NC(=O)[C@@H](NC(=O)[C@H](C)NC(=O)[C@H](CC(=O)O)NC(=O)[C@@H](CCCNC(=N)N)NC(=O)[C@H](Cc1c[nH]cn1)NC(=O)Cc1ccccc1)[C@@H](C)CC)[C@@H](C)O)C(C)C)[C@@H](C)CC)C(=O)N[C@H](CCCNC(=N)N)C(=O)N[C@@H](CCCCNC(=N)N)C(N)=O [Peptide 42, [PhAc-His^1, D-Arg^2, Tyr^6, Har^9, Bpa^10, Abu^15, Nle^27, D-Arg^28, Har^29]hGH-RH(1-29)NH2] (PhAc-H[dR]DAIYTN[hArg][Bpa]RKVL[Abu]QLSARKLLQDI[Nle][dR][hArg]-NH2) |  |  |  |  |  | 52 % of control | 7 % of control | 9 % of control | 8 % of control | 13 % of control | high endocrine antagonistic potencies
CCCC[C@H](NC(=O)[C@@H](NC(=O)[C@H](CC(=O)O)NC(=O)[C@H](CCC(N)=O)NC(=O)[C@H](CC(C)C)NC(=O)[C@H](CC(C)C)NC(=O)[C@H](CCCCN)NC(=O)[C@H](CCCNC(=N)N)NC(=O)[C@H](C)NC(=O)[C@H](CO)NC(=O)[C@H](CC(C)C)NC(=O)[C@H](CCC(N)=O)NC(=O)[C@H](CC)NC(=O)[C@H](CC(C)C)NC(=O)[C@@H](NC(=O)[C@H](CCCCNC(=N)N)NC(=O)[C@H](CCCNC(=N)N)NC(=O)[C@H](Cc1ccc(O)cc1)NC(=O)[C@H](CCCNC(=N)N)NC(=O)[C@H](CC(N)=O)NC(=O)[C@@H](NC(=O)[C@H](Cc1ccc(Cl)cc1)NC(=O)[C@@H](NC(=O)[C@H](C)NC(=O)[C@H](CC(=O)O)NC(=O)[C@@H](CCCNC(=N)N)NC(=O)[C@H](Cc1ccc(O)cc1)NC(=O)Cc1ccccc1)[C@@H](C)CC)[C@@H](C)O)C(C)C)[C@@H](C)CC)C(=O)N[C@H](CCCNC(=N)N)C(=O)N[C@@H](CCCCNC(=N)N)C(N)=O [Peptide 43, [PhAc-Tyr^1, D-Arg^2, Phe(pC)^6, Arg^9, Har^12, Abu^15, Nle^27, D-Arg^28, Har^29]hGH-RH(1-29)NH2] (PhAc-Y[dR]DAI[Phe(4-Cl)]TNRYR[hArg]VL[Abu]QLSARKLLQDI[Nle][dR][hArg]-NH2) |  |  |  |  |  | 82 % of control | 74 % of control | 102 % of control | 72 % of control | 51 % of control | 
[CH3(CH2)4CO-Tyr^1, D-Arg^2, Phe(pCl)^6, Arg^9, Abu^15, Nle^27, D-Arg^28, Har^29]hGH-RH(1-29)NH2 [Peptide 2] |  |  |  |  |  | 18 % of control | 13 % of control | 18 % of control | 25 % of control | 51 % of control | 
[CH3(CH2)10CO-Tyr^1, D-Arg^2, Phe(pCl)^6, Arg^9, Abu^15, Nle^27, D-Arg^28, Har^29]hGH-RH(1-29)NH2 [Peptide 8] |  |  |  |  |  | 37 % of control | 31 % of control | 48 % of control | 44 % of control | 40 % of control | 
[CH3(CH2)12CO-Tyr^1, D-Arg^2, Phe(pCl)^6, Arg^9, Abu^15, Nle^27, D-Arg^28, Har^29]hGH-RH(1-29)NH2 [Peptide 10] |  |  |  |  |  | 60 % of control | 30 % of control | 36 % of control | 37 % of control | 44 % of control | 
[CH3(CH2)14CO-Phe^0, D-Arg^2, Phe(pCl)^6, Arg^9, Abu^15, Nle^27, D-Arg^28, Har^29]hGH-RH(1-29)NH2 [Peptide 16] |  |  |  |  |  | 40 % of control | 62 % of control | 78 % of control | 73 % of control | 61 % of control | 
[CH3(CH2)14CO-Tyr^1, D-Arg^2, Phe(pCl)^6, Arg^9, Abu^15, Nle^27, D-Arg^28, Har^29]hGH-RH(1-29)NH2 [Peptide 12] |  |  |  |  |  | 35 % of control | 30 % of control | 35 % of control | 51 % of control | 43 % of control | 
[CH3(CH2)14COD-Phe^0, D-Arg^2, Phe(pCl)^6, Arg^9, Abu^15, Nle^27, D-Arg^28, Har^29]hGH-RH(1-29)NH2 [Peptide 17] |  |  |  |  |  | 29 % of control | 51 % of control | 68 % of control | 73 % of control | 61 % of control | 
[HOOC(CH2)4CO-Tyr^1, D-Arg^2, Phe(pCl)^6, Arg^9, Abu^15, Nle^27, D-Arg^28, Har^29]hGH-RH(1-29)NH2 [Peptide 3] |  |  |  |  |  | 52 % of control | 61 % of control | 56 % of control | 70 % of control | 149 % of control | 
[HOOC(CH2)10CO-Tyr^1, D-Arg^2, Phe(pCl)^6, Arg^9, Abu^15, Nle^27, D-Arg^28, Har^29]hGH-RH(1-29)NH2 [Peptide 9] |  |  |  |  |  | 47 % of control | 43 % of control | 66 % of control | 63 % of control | 58 % of control | 
[HOOC(CH2)14CO-Tyr^1, D-Arg^2, Phe(pCl)^6, Arg^9, Abu^15, Nle^27, D-Arg^28, Har^29]hGH-RH(1-29)NH2 [Peptide 13] |  |  |  |  |  | 87 % of control | 77 % of control | 76 % of control | 71 % of control | 73 % of control | 
[Hca-Tyr^1, D-Arg^2, Phe(pCl)^6, Har, Tyr(Me)^10, Abu^15, Nle^27, D-Arg^28, Har^29, Har^30]hGH-RH(1-30)NH2 [Peptide 53] |  |  |  |  |  | 43 % of control | 42 % of control | 40 % of control | 36 % of control | 46 % of control | 
